Measurements reported in US11718614B2, “Compounds and methods for treatment of hedgehog pathway associated conditions” (Suzhou Mednes Pharma Tech Co., Ltd., priority 2018, dated 2023).

System: tumor cells from medulloblastoma developed from mice with deficiency in Patched1 gene
Experiment: MB assay: survival of medulloblastoma tumor cells by MTT after 48 hours
Type: cell-based
Conditions: Mus musculus, tumor cells treated 48 hours, cell survival by MTT
Description: To test the effect of the novel compounds on the proliferation of tumor cell, we isolated tumor cells from medulloblastoma developed from mice with deficiency in Patched1 gene. Tumor cells were plated in vitro as previously described, and treated with various concentration of compounds for 48 hours. Tumor cells cultured were then harvested to measure cell survival based on MTT assay. The IC50 value for each compound was calculated using Prism the statistical software.
Table 1 below summarizes the IC50 data obtained using MB assay for exemplary compounds of the invention. IC50 values are shown as A, B, C, or D. A represents IC50 value between 1.0 μM and 5.0 μM; B is between 5.0 μM and 10 μM; C is between 10 μM to 20 μM; and D indicates greater than 20 μM.

## COC(=O)C(C)(C)Cc1nc2cc(OC)ccc2n1Cc1ccccc1Cl [Compound 58]
  IC50: > 20 µM
